Measurements from patent US20080026996A1, “Selective Vpac2 Receptor Reptide Agonists” (ELI LILLY AND COMPANY, priority 2004, published 2008).
Where two headings read alike, the source gives them in different places. Where a SMILES comes first, the peptide text is derived from it. Where no end group is shown, it is not given here. [ ]: non-standard residue; d: D form. The star is where a group is joined. Hexanoyl = CCCCCC(=O)*; Aib = CC(C)(N)C(=O)O

Experiments:
[1] = Rat serum stability studies (remaining active peptide by DiscoveRx cAMP on CHO-VPAC2 cells); format: in vitro ADME
Outline: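 Rat serum, 18 h: +aprotinin aliquot at 4° C, no-aprotinin aliquot at 37° C. Then 30 min RT step, supernatant removed, 1 h shaking at 300 rpm. DiscoveRx cAMP kit on CHO-VPAC2; EC50 from cAMP data vs standards.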

rat VPAC2 receptor [2] = target: T1, rat VPAC2 receptor (Rattus norvegicus, UniProt P35000); test: DiscoveRx in vitro potency, CHO-PO cells transiently transfected with rat VPAC 2 receptor DNA; format: cell-based; set-up: expressed in transfected cells; host or cells: CHO-PO, transient
T1 sequence (P35000 23-437): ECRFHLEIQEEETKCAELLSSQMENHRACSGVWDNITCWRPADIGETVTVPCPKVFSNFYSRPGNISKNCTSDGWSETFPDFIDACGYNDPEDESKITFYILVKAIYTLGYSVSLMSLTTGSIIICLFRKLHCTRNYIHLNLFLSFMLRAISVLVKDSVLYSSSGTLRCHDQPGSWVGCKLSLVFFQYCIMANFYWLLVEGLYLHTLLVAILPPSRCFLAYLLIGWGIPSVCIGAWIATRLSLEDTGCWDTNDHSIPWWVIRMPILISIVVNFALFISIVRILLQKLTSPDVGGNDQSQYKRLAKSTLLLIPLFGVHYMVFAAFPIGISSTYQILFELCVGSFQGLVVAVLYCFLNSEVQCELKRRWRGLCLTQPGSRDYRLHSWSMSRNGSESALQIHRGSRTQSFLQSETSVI
Procedure: Also, the cells are washed twice. […] The stimuli are present for 30 minutes. Then, the assay buffer is gently removed.

rat VPAC1 receptor [3] = target: T2, rat VPAC1 receptor (Rattus norvegicus, UniProt P30083); test: Adenylate cyclase activation on membrane preparations expressing rat VPAC1 receptor; format: biochemical; set-up: expressed in transfected cells; host or cells: CHO cells, crude membranes; conditions: for VPAC1 cAMP max: maximal increase in cyclic AMP production (over basal) per minute and per mg protein
T2 sequence (P30083 31-459): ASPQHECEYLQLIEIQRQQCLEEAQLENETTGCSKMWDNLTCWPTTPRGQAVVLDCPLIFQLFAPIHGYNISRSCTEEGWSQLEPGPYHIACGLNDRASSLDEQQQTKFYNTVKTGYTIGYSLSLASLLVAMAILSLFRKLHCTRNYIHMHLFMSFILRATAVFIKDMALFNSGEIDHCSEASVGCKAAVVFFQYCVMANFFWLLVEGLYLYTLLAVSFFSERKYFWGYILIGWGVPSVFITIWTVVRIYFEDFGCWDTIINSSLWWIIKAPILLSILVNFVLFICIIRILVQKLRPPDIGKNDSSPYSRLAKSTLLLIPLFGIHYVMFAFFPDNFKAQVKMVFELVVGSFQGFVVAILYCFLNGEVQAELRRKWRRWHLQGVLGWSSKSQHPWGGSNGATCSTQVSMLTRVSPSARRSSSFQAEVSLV
Procedure: (§1) All studies are performed on crude membranes prepared from three different cell cultures expressing the different recombinant receptors, using methodology that is known in the literature. Duplicate values are obtained for each assay.
(§2) The selectivity of the VPAC2 receptor peptide agonists of the present invention are tested on the rat VPAC1 and VPAC2 receptors recombinantly expressed in CHO cells. The compound of the invention were evaluated in receptor binding & adenylate cyclase activation assays.
(§3) Dose-effect curves of adenylate cyclase activation were generated using the VPAC2 receptor peptide agonists (10^−11 to 10^−6 M, two concentrations per log) of the present invention.
Adenylate cyclase activity was determined by the procedure of Salomon et al. (1974), A highly sensitive adenylate cyclase assay. Analytical Biochemistry 58 (1974. Membrane proteins ([…]) are incubated in a total volume of […] containing 0.5 mM [^32P]-ATP, 10 µM GTP, 5 mM MgCl2, 0.5 mM EGTA, 1 mM cAMP, 1 mM theophylline, 10 mM phospho(enol)pyruvate, […] pyruvate kinase and 30 mM Tris-HCl at a final pH of 7.8. The reaction is initiated by membrane addition and is terminated after 15 min incubation at 37° C. by addition of 0.5 ml of 0.5% sodium dodecyl-sulfate solution containing 0.5 mM ATP, 0.5 mM cAMP and […] [^3H]-cAMP. cAMP was separated from ATP by two successive chromatographies on Dowex 50Wx8 and neutral alumina.

rat VPAC1 receptor [4] = target: T2, rat VPAC1 receptor; test: Competition binding on recombinant rat VPAC1 receptor expressed in CHO cells, 125I-VIP tracer; set-up: expressed in transfected cells; host or cells: CHO cells, crude membranes
Procedure: The peptide samples are stored frozen and thawed prior to the assay. […] All peptide sample and reference compound dilutions are performed in PBS. Peptides solutions are kept in the cold room for four days. Stock solutions are stored at −80° C. New dilution curves are prepared every week.
Each assay is done in duplicate and performed on two different membrane preparations.

[5] = rat, in vivo, iv; for Exposure (10 μg/kg, Vdist in μg/(nM * kg)): 10 ug/kg
Procedure: An IVGTT with glucose is given immediately after T=0 to 6 animals per condition. Samples are taken at 0, 2, 4, 6, and 10 minutes after injection.
For cell handling, Plate 50,000 cells/well and keep in culture over night. Wash cell twice in PBS and add 50 μl/well stimulation medium consisting of PBS+1.2 MgCl2, 1.3 CaCl2, 2 glucose and 0.5 IBMX. Incubate 15 minutes and add 50 μl/well of the plasma samples (see layout below). Incubate 30 minutes, remove the supernatant and proceed as normal with the DiscoveRx assay. Prepare plates in duplicate. Protease and peptidase inhibitor are present in all plasma samples.

rat VPAC2 receptor [6] = target: T1, rat VPAC2 receptor; test: Adenylate cyclase activation on membrane preparations expressing rat VPAC2 receptor; format: biochemical; set-up: expressed in transfected cells; host or cells: CHO cells, crude membranes; conditions: for VPAC2 cAMP max: maximal increase in cyclic AMP production (over basal) per minute and per mg protein; for VPAC1/VPAC2 ratio of EC50: rat receptors
Procedure: as §1, §2, §3

rat PAC1 receptor = target: T3, rat PAC1 receptor (Rattus norvegicus, UniProt P32215); test: Binding on recombinant rat PAC1 receptor expressed in CHO cells; conditions: maximal concentration tested 10 μM peptide
T3 construct: expressed in transfected cells; host or cells: CHO cells, crude membranes
T3 sequence (P32215 20-523): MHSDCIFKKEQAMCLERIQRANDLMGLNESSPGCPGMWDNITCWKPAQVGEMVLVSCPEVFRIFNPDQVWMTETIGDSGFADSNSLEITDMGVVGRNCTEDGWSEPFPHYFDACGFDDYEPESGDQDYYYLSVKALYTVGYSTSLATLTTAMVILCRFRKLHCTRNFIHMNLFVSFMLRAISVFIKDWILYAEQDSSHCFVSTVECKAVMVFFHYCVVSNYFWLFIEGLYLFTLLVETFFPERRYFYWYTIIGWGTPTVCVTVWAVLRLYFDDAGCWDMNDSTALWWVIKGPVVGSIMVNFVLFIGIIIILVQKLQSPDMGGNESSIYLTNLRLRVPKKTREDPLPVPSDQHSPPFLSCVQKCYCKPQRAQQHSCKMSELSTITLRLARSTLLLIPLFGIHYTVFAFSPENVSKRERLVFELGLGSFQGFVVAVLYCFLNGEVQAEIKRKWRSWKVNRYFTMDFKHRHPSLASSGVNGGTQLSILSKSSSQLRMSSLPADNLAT
Procedure: as §1

[7] = adenylate cyclase activation, rat VPAC1 membranes, with standard error, read-out: VPAC1 EC50 (log M) (converted)
[8] = IC50 of tracer inhibition, 125I-VIP, with standard error, read-out: RAT VPAC1 IC50 (log M) (converted)
[9] = adenylate cyclase activation, rat VPAC2 membranes, with standard error, read-out: VPAC2 EC50 (log M) (converted)

| Compound | Rat Serum Stability (estimated purity in % after 18 hours) [1] [%] | EC50 (rat VPAC2 receptor [2]) [nM] | EC50 (rat VPAC1 receptor [3]; [7]) [nM] | VPAC1 cAMP max (rat VPAC1 receptor [3]) | IC50 (rat VPAC1 receptor [4]; [8]) [nM] | Exposure (0.5 μg/kg, Vdist in μg/(nM * kg)) ([5]; 0.5 ug/kg) [µg/nM/kg] | Exposure (10 μg/kg, Vdist in μg/(nM * kg)) [5] [µg/nM/kg] | EC50 (rat VPAC2 receptor [6]; [9]) [nM] | VPAC2 cAMP max (rat VPAC2 receptor [6]) | VPAC1/VPAC2 ratio of EC50 (rat VPAC2 receptor [6]; adenylate cyclase activation) | binding (tracer displacement) (rat PAC1 receptor) | Rat Serum Stability (estimated purity in % after 18 hours) ([1]; 10 μM peptide in rat serum, 37° C., 18 hours, versus 4° C. aliquot with aprotinin) [%] | EC50 (rat VPAC1 receptor [3]) [nM] | IC50 (rat VPAC1 receptor [4]) [nM] | EC50 (rat VPAC2 receptor [6]) [nM] | Rat Serum Stability (Estimated purity in % after 72 hours) [1] [%] |
| --- | --- | --- | --- | --- | --- | --- | --- | --- | --- | --- | --- | --- | --- | --- | --- | --- |
| CCCCCC(=O)N[C@@H](Cc1c[nH]cn1)C(=O)N[C@@H](CO)C(=O)N[C@@H](CC(=O)O)C(=O)N[C@@H](C)C(=O)N[C@H](C(=O)N[C@@H](Cc1ccccc1)C(=O)N[C@H](C(=O)N[C@@H](CC(=O)O)C(=O)N[C@@H](CC(N)=O)C(=O)N[C@@H](Cc1ccc(O)cc1)C(=O)N[C@H](C(=O)N[C@@H](CCCNC(=N)N)C(=O)N[C@@H](CC(C)C)C(=O)N[C@@H](CCCNC(=N)N)C(=O)NC(C)(C)C(=O)N[C@@H](CCC(N)=O)C(=O)N[C@@H](CC(C)C)C(=O)N[C@@H](C)C(=O)N[C@@H](C)C(=O)NC(C)(C)C(=O)N[C@@H](CCCCN)C(=O)N[C@@H](Cc1ccc(O)cc1)C(=O)N[C@@H](CC(C)C)C(=O)N[C@@H](CCC(N)=O)C(=O)N[C@@H](CO)C(=O)N[C@H](C(=O)N[C@@H](CCCCN)C(=O)N[C@@H](CC(N)=O)C(=O)N[C@@H](CCCCN)C(=O)NCC(=O)NCC(=O)N1CCC[C@H]1C(=O)N[C@@H](CO)C(=O)N[C@@H](CO)C(=O)NCC(=O)N[C@@H](C)C(=O)N1CCC[C@H]1C(=O)N1CCC[C@H]1C(=O)N1CCC[C@H]1C(=O)N[C@@H](CO)C(=O)O)[C@@H](C)CC)[C@@H](C)O)[C@@H](C)O)C(C)C [Agonist P292] (Hexanoyl-HSDAVFTDNYTRLR[Aib]QLAA[Aib]KYLQSIKNKGGPSSGAPPPS-OH; C-terminus assumed) | 33.43 | 0.07 | 11.5 | 124 | 204 | 9.5 | 1.9 | 0.115 | 79.1 | 100 |  |  |  |  |  |  |
| Hexanoyl-HSDAVFTDNYTRLRKQVAAKKYLQSIKNKRYGGPSSGAPPPS [Agonist P31] |  |  | 25.2 | 200 ± 13 | 210 |  | 10 | 0.145 | 134 ± 12 | 174 | incomplete tracer displacement |  |  |  |  |  |
| H-MHSDAVFTDNYTRLRKQVAAKKYLQSIKNKRYGGPSSGAPPPS [Agonist P104] |  |  |  | 195 ± 18 |  |  |  |  | 129 ± 19 | 184 | incomplete tracer displacement | 1.01 | 186 | 1760 | 1.01 |  |
| Hexanoyl-HSDAVFTDNYTRLR[Aib]QVAAK[Aib]YLQSIKNKRYGGPSSGAPPPS [Agonist P264] | 19.22 | 0.1 |  |  |  |  | 5.1 |  |  |  |  |  |  |  |  | 0.9 |
| Hexanoyl-HSDAVFTDNYTRLLAKLALQKYLQSIKNKRYGGPSSGAPPPS [Agonist P119] |  |  | 2.9 | 207 ± 13 | 29.2 |  |  | 0.0912 | 133 ± 18 | 32 | incomplete tracer displacement |  |  |  |  |  |
| Hexanoyl-HSDAVFTDNYTRLR[Aib]QVAA[Aib]KYLQSIKNKRYGGPSSGAPPPS [Agonist P261] | 27.06 | 0.04 | 12.6 | 126 | 129 |  | 0.8 | 0.0631 | 78.5 | 200 |  |  |  |  |  |  |
